Patent US20050164370A1 (priority 2003, published 2005)

Assays:
[1] = test system: transformed cells TM182-CRE1-ADHIPT5; format: cell-based, yeast; conditions: Table 3, TM182-CRE1-ADH-IPT5, 1 μL of 200 ppm DMSO solution per 100 μL, DOHLU+Glu, 30° C. for 24 hours
Method: Each of the transformed cells TM182-CYC1-CYC1IPT4, TM182-CYC1-ADHIPT4, TM182-CYC1-CYC1IPT5, TM182-CYC1-ADHIPT5, TM182-CRE1-CYC1IPT4, and TM182-CRE1-ADHIPT5 obtained in Example 16 was inoculated in 200 mL of DOHLU+Gal culture medium, and was pre-cultured at 30° C. for 36 hours. The thus obtained culture solutions were diluted with DOHLU+Glu culture medium so that OD600 became 0.200, and then the diluted ones were further diluted with DOHLU+Glu culture medium at a dilution rate of 1/200 to obtain diluted pre-cultured solutions.
A 96-well assay plate was prepared by filling each well with 1 μL of a DMSO solution of an examinee substance (Abscisic acid or 6-Benzyl aminopurine). In this regard, it is to be noted that the DMSO solution of a examinee substance was prepared so that the concentration thereof became 200 ppm. Simultaneously, an assay plate was prepared by filling each well with 1 μL of DMSO as a blank section.
Each of the diluted pre-cultured solutions was added in a volume of 100 μL per each well of both of the assay plates, and was cultured at 30° C. for 24 hours. After incubation, the turbidity of each well was measured using a plate reader.

cytokinin receptor AHK3 = molecular target: T1, cytokinin receptor AHK3 (Arabidopsis thaliana, UniProt Q9C5U1); conditions: TM182-AHK3, DOLU+Glu agar, 10 μM, 30° C. for 30 hours
T1 sequence (Q9C5U1 1-1036): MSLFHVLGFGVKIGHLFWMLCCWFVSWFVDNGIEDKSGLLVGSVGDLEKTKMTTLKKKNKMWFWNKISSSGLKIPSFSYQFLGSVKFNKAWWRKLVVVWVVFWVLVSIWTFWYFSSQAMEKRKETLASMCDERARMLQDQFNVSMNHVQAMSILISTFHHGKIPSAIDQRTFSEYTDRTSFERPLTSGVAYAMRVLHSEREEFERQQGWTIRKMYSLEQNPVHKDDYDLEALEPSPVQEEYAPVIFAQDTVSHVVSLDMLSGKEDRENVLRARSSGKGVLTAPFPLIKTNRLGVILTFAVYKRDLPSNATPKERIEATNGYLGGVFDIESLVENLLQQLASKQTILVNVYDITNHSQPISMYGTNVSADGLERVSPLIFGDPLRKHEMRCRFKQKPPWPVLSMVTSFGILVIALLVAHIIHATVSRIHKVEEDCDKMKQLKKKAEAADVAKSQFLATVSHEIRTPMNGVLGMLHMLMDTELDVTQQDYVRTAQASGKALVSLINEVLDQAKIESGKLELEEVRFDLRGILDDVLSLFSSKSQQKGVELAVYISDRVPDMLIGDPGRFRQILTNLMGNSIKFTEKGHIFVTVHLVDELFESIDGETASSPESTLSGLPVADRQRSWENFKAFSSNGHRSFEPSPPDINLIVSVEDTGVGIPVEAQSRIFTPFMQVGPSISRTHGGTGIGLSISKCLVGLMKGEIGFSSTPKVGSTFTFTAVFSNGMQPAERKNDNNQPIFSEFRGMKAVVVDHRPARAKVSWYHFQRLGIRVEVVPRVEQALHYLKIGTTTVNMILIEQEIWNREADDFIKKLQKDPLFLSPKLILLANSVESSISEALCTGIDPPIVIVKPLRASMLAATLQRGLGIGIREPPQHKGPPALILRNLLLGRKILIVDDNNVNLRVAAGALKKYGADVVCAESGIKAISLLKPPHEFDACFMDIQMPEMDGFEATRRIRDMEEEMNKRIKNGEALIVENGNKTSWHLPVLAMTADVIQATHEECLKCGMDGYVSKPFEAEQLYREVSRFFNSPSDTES
Method: A culture solution 10 μl (about 800 clones of yeast) of the transformed cells TM182-CRE1, TM182-AHK2, TM182-AHK2Δ and TM182-AHK3 produced by the example 12 was spotted on DOLU+Glu agar media containing 10 μM of trans-zeatin and cultured at 30° C. for 30 hours. After incubation, the growth state of the transformed cells was observed and photographed by a digital camera.

| Compound | absorbance (OD600) of the culture solution [1] | growth state of the transformed cells as compared with media containing no trans-zeatin (cytokinin receptor AHK3) |
| --- | --- | --- |
| CC1=CC(=O)CC(C)(C)[C@@]1(O)/C=C/C(C)=C\C(=O)O [Compound A, Abscisic acid] | 0.131 |  |
| c1ccc(CNc2ncnc3nc[nH]c23)cc1 [Compound B, 6-Benzyl aminopurine] | 0.293 |  |
| C/C(=C\CNc1ncnc2nc[nH]c12)CO [trans-zeatin] |  | high growth |
